Experiment: xn = mol fraction of the nth substance listed
Conditions: for speed of sound: 100 kPa, Frequency=3 MHz, Sing-around technique in a fixed-path interferometer; for speed of sound / viscosity / mass density: Liquid; for viscosity / mass density: 102 kPa; for viscosity: Concentric cylinders viscometry; for mass density: Vibrating tube method; for surface tension liquid-gas: 294.5 K, Pendant drop shape

CCCCc1ccccc1 [butylbenzene] + CCCCCCCCCCCC
Conditions | mass density [kg/m3] | speed of sound [m/s] | viscosity [mPa·s]
293.15 K, x1 = 0.1241 | 758.28 | 1300.2 | 1.38
293.15 K, x1 = 0.2414 | 768.11 | 1302.8 | 1.31
293.15 K, x1 = 0.3524 | 778.18 | 1306.4 | 1.24
293.15 K, x1 = 0.4583 | 788.6 | 1310.3 | 1.19
293.15 K, x1 = 0.5593 | 799.56 | 1315.4 | 1.15
293.15 K, x1 = 0.6552 | 810.7 | 1321.3 | 1.11
293.15 K, x1 = 0.7575 | 823.88 | 1328.6 | 1.08
293.15 K, x1 = 0.8349 | 834.67 | 1335.5 | 1.06
293.15 K, x1 = 0.9194 | 847.33 | 1343.9 | 1.04
293.15 K, x1 = 1 | 860.51 | 1353.7 | 1.05
303.15 K, x1 = 0.1241 | 750.96 | 1262 | 1.17
303.15 K, x1 = 0.2414 | 760.73 | 1264.8 | 1.12
303.15 K, x1 = 0.3524 | 770.74 | 1268.4 | 1.07
303.15 K, x1 = 0.4583 | 781.11 | 1272.3 | 1.03
303.15 K, x1 = 0.5593 | 791.97 | 1277.3 | 0.996
303.15 K, x1 = 0.6552 | 803.03 | 1283.1 | 0.968
303.15 K, x1 = 0.7575 | 816.12 | 1290.4 | 0.941
303.15 K, x1 = 0.8349 | 826.84 | 1297 | 0.925
303.15 K, x1 = 0.9194 | 839.4 | 1305.4 | 0.909
303.15 K, x1 = 1 | 852.49 | 1314.9 | 0.91
313.15 K, x1 = 0.1241 | 743.61 | 1224.4 | 1.01
313.15 K, x1 = 0.2414 | 753.32 | 1227.2 | 0.968
313.15 K, x1 = 0.3524 | 763.26 | 1230.8 | 0.931
313.15 K, x1 = 0.4583 | 773.56 | 1234.7 | 0.9
313.15 K, x1 = 0.5593 | 784.35 | 1239.7 | 0.873
313.15 K, x1 = 0.6552 | 795.32 | 1245.4 | 0.85
313.15 K, x1 = 0.7575 | 808.33 | 1252.5 | 0.829
313.15 K, x1 = 0.8349 | 818.96 | 1259.1 | 0.816
313.15 K, x1 = 0.9194 | 831.44 | 1267.3 | 0.804
313.15 K, x1 = 1 | 844.43 | 1276.6 | 0.801
323.15 K, x1 = 0.1241 | 736.23 | 1187.2 | 0.879
323.15 K, x1 = 0.2414 | 745.87 | 1190 | 0.846
323.15 K, x1 = 0.3524 | 755.75 | 1193.7 | 0.817
323.15 K, x1 = 0.4583 | 765.97 | 1197.6 | 0.793
323.15 K, x1 = 0.5593 | 776.69 | 1202.5 | 0.771
323.15 K, x1 = 0.6552 | 787.58 | 1208.1 | 0.753
323.15 K, x1 = 0.7575 | 800.5 | 1215.2 | 0.736
323.15 K, x1 = 0.8349 | 811.06 | 1221.6 | 0.725
323.15 K, x1 = 0.9194 | 823.44 | 1229.7 | 0.716
323.15 K, x1 = 1 | 836.34 | 1238.7 | 0.713
333.15 K, x1 = 0.1241 | 728.82 | 1150.5 | 0.771
333.15 K, x1 = 0.2414 | 738.39 | 1153.4 | 0.745
333.15 K, x1 = 0.3524 | 748.19 | 1157 | 0.722
333.15 K, x1 = 0.4583 | 758.34 | 1161 | 0.703
333.15 K, x1 = 0.5593 | 768.98 | 1165.8 | 0.686
333.15 K, x1 = 0.6552 | 779.81 | 1171.3 | 0.671
333.15 K, x1 = 0.7575 | 792.63 | 1178.4 | 0.657
333.15 K, x1 = 0.8349 | 803.11 | 1184.6 | 0.649
333.15 K, x1 = 0.9194 | 815.41 | 1192.5 | 0.64
333.15 K, x1 = 1 | 828.21 | 1201.4 | 0.636
343.15 K, x1 = 0.1241 | 721.2 | – | 0.683
343.15 K, x1 = 0.2414 | 730.8 | – | 0.662
343.15 K, x1 = 0.3524 | 740.5 | – | 0.643
343.15 K, x1 = 0.4583 | 750.7 | – | 0.627
343.15 K, x1 = 0.5593 | 761.2 | – | 0.614
343.15 K, x1 = 0.6552 | 771.9 | – | 0.602
343.15 K, x1 = 0.7575 | 784.7 | – | 0.59
343.15 K, x1 = 0.8349 | 795.1 | – | 0.583
343.15 K, x1 = 0.9194 | 807.2 | – | 0.576
343.15 K, x1 = 1 | 819.9 | – | 0.571
353.15 K, x1 = 0.1241 | 713.7 | – | 0.608
353.15 K, x1 = 0.2414 | 723.2 | – | 0.591
353.15 K, x1 = 0.3524 | 732.9 | – | 0.576
353.15 K, x1 = 0.4583 | 743 | – | 0.563
353.15 K, x1 = 0.5593 | 753.4 | – | 0.552
353.15 K, x1 = 0.6552 | 764 | – | 0.542
353.15 K, x1 = 0.7575 | 776.7 | – | 0.532
353.15 K, x1 = 0.8349 | 787 | – | 0.526
353.15 K, x1 = 0.9194 | 799.1 | – | 0.521
353.15 K, x1 = 1 | 811.7 | – | 0.516
363.15 K, x1 = 0.1241 | 706.1 | – | 0.546
363.15 K, x1 = 0.2414 | 715.6 | – | 0.532
363.15 K, x1 = 0.3524 | 725.1 | – | 0.519
363.15 K, x1 = 0.4583 | 735.2 | – | 0.508
363.15 K, x1 = 0.5593 | 745.5 | – | 0.499
363.15 K, x1 = 0.6552 | 756 | – | 0.491
363.15 K, x1 = 0.7575 | 768.6 | – | 0.483
363.15 K, x1 = 0.8349 | 778.9 | – | 0.478
363.15 K, x1 = 0.9194 | 790.9 | – | 0.473
363.15 K, x1 = 1 | 803.4 | – | 0.469
373.15 K, x1 = 0.1241 | 698.5 | – | 0.493
373.15 K, x1 = 0.2414 | 707.8 | – | 0.481
373.15 K, x1 = 0.3524 | 717.3 | – | 0.471
373.15 K, x1 = 0.4583 | 727.2 | – | 0.461
373.15 K, x1 = 0.5593 | 737.5 | – | 0.454
373.15 K, x1 = 0.6552 | 747.9 | – | 0.447
373.15 K, x1 = 0.7575 | 760.5 | – | 0.44
373.15 K, x1 = 0.8349 | 770.7 | – | 0.436
373.15 K, x1 = 0.9194 | 782.6 | – | 0.432
373.15 K, x1 = 1 | 795 | – | 0.43

Conditions | surface tension liquid-gas [mN/m]
x1 = 0.1241 | 25.4
x1 = 0.2414 | 26
x1 = 0.3524 | 26.3
x1 = 0.4583 | 26.2
x1 = 0.5593 | 26.7
x1 = 0.6552 | 27
x1 = 0.7575 | 27.5
x1 = 0.8349 | 27.7
x1 = 0.9194 | 28.4
